Assay results: US20020034725A1, “SENSITIZATION OF CELLS TO RADIATION AND AND CHEMOTHERAPY” (priority 1996, published 2002)

Tests used:
H-ras = test: Western blot of H-ras prenylation in SW480 cells; assay type: cell-based, human; conditions: 48 hours
Method: FIG. 17A is an image of a Western blot depicting inhibition by FTI-277 of K-ras prenylation in human SW480 colon carcinoma cells. SW480 cells were treated with the indicated concentrations of FTI-277 (μM) for 48 hours. Samples were harvested and cell lysates were analyzed by Western blotting using either a H-ras monoclonal antibody (top) or a K-ras monoclonal antibody (bottom). Arrows indicate unfarnesylated ras bands.

[1] = test system: 5R, 3.7, MR4 and REF cells; test: Radiation survival determination (clonogenic survival); assay type: cell-based, rat; conditions: for plating efficiency: unaffected by FTI-277
Method: FIG. 14A comprises a series of graphs depicting clonogenic survival of 5R, 3.7, MR4, and REF cells following treatment with FTI-277 and irradiation of the cells. Immediately prior to irradiation, FTI-277 was added at concentrations of 2.5 μM (3.7 cells) or 5 μM (5R, MR4 and REF cells). The inhibitor was diluted out of the culture medium 24 hours later resulting in a final concentration of inhibitor of 1 μM (3.7 cells) or 2 μM (5R, MR4 and REF). The plating efficiencies of MR4 and […] were unaffected by treatment with FTI-277, being 100% and 32-38%, respectively. FTI-277 reduced the plating efficiency of 3.7 and REF cells by 50% of untreated control values which were 75% and 5%, respectively. […] The data points shown represent the mean of the results obtained from at least three separate dishes of cells. The open symbols indicate the results obtained in untreated cells and the closed symbols are those results obtained in cells treated with FTI-277. In the panel labeled 3.7, the open triangles are the results obtained in untreated MR4 cells.
Cells obtained from log growth cultures were plated in 60-mm dishes and allowed to attach for 4 hours before addition of FTI-277 to the medium. The plating medium was then removed and fresh medium containing FTI-277 in DMSO or DMSO alone (for control dishes) was added immediately before irradiation. Cells were irradiated with a Mark I cesium irradiator (J. S. Shepherd, San Fernando, Calif.) at a dose rate of 1.7 Gray per minute. Colonies of cells were stained and counted 10-14 days after irradiation (McKenna et al., 1990, supra). The surviving fraction of cells at a given dose is defined as: [formula]
Each point on the survival curves represents the mean surviving fraction from at least three dishes of cells.

FTase = FTase (Homo sapiens, UniProt P49354+P49356); conditions: cited from earlier work
H-ras^v12 = test: Western blot of H-ras farnesylation in H-ras transformed REF cells (3.7, 4R, 5R); assay type: cell-based, rat
Description: The oncogene-transfected cells used in this study were all derived from early passage rat embryo fibroblast (REF) by transfection with the pEJ plasmid containing the H-ras gene isolated from the EJ bladder carcinoma. This vector was introduced by calcium phosphate DNA transfer into primary REF, either alone or together with the pMC29 vector containing v-myc. One clone containing both the introduced H-ras gene and the v-myc genes is 3.7 (McKenna et al., 1990, Cancer Res. 50:97-102). 4R and 5R cells were obtained as rare transformants after transfection with the pEJ plasmid alone (McKenna et al., 1993, supra). MR4 cells were immortalized by transfection with an expression vector comprising v-myc linked to a neomycin-resistant selectable marker (McKenna et al., 1991, Radiat. Res. 125:283-287). REF-GG cells were obtained by transforming REF cells with a chimeric H-ras(v12) in which the CAAX motif is CVLL. All cell lines were mycoplasma free.
Cells were lysed in culture dishes with 1 x reducing Laemmli sample buffer. Samples were boiled, sheared and clarified by centrifugation at 14,000 rpm in a microfuge before storage at −20° C. Samples containing equal amounts of protein were separated on a 12% SDS polyacrylamide gel and electrophoretically transferred to nitrocellulose membranes. Membranes were blocked for 1-2 hours in PBS containing 0.1% Tween-20 and 5% powdered milk before antibody addition. Membranes were probed with monoclonal pan-ras antibody AB-4 (Oncogene Science, Uniondale, N.Y.) at a concentration of 0.5 μg/ml, or with monoclonal H-ras antibody LA069 (1:5000 dilution; Quality Biotech, Camden, N.J.). Detection of protein was accomplished using the ECL chemiluminescence kit (Amersham, Arlington Heights, Ill.). Images were digitized using an Arcus II scanner, and figures were assembled using Adobe Photoshop 3.0.
Transformed REF cells derived from the R5 cell line were treated with 5 μm FTI-277 to establish a time course for the accumulation of unfarnesylated H-ras. Prenylated forms of ras migrate more rapidly than unprenylated ras on SDSpolyacrylamide gels (Gutierrez et al., 1989, EMBO J. 8:1093-1098; Farh et al., 1995, Arch. Biochem. Biophys. 18:113-121). This shift in motility was used to assess the prenylation status of H-ras after farnesyltransferase inhibitor treatment.

[2] = test system: mouse prostate tumor cells transformed with H-ras^v12 and myc; test: Radiation induced apoptosis of mouse prostate tumor cells; assay type: cell-based; conditions: doses which inhibited ras farnesylation, 10 Gray
Method: FIG. 13B is a graph depicting the effects of the inhibitor, FTI-277, at the concentrations indicated (μM) on radiation induced apoptosis of prostate tumor cells. Cells were treated with FTI-277 for 24 hours before irradiation with 10 Gray. Apoptosis was quantitated 24 hours after irradiation by scoring for changes in nuclear morphology following staining of the cells with propidium iodide. Panel A depicts prostate tumor cells cultured from a primary tumor. Panel B depicts prostate tumor cells cultured from an isolated metastasis derived from the tumor.
3×10^3 cells/well in 24-well plates were allowed to attach for 12 hours and were then treated with medium containing FTI-277 in DMSO or an equivalent volume of DMSO without inhibitor. Twenty four hours after irradiation with 10 Gray using the irradiator described above, both adherent and non-adherent cells were harvested. Cells were stained with propidium iodide (Muschel et al., 1995, Cancer Res. 55:995-998). A minimum of three independent fields of 100 cells were counted for each sample. Scoring of samples was performed in a double blind manner.

SMILES: COC(=O)[C@H](CCSC)NC(=O)c1ccc(NC[C@@H](N)CS)cc1-c1ccccc1 [FTI-277]
- lowest concentration with altered migration of H-ras (H-ras): 2.5 µM
- radioresistance (survival curves) ([1]; 3.7 (2.5 μM) and 5R (5 μM) cells, 24 hours after irradiation): reduced to a level of survival which was similar to that seen in MR4 cells
- reduction of plating efficiency, of untreated control values ([1]; 3.7 and REF cells): 50%
- plating efficiency ([1]; 5R cells): 32-38%
- plating efficiency ([1]; MR4 cells): 100%
- radiation survival ([1]; MR4 or REF cells, 5 μM): no effect on radiation survival
- FTase inhibition (FTase): inhibited Ftase activity
- H-ras farnesylation status (H-ras^v12; 3.7, 4R and 5R cells, 2.5 to 10 μm, 24 hours): primarily unfarnesylated
- time by which detectable farnesylated H-ras was observed after removal of inhibitor (H-ras^v12; 3.7 cells, 5 μm for 30 hours, then removed): ≤ 2 h
- H-ras in the farnesylated form after removal of inhibitor (H-ras^v12; 3.7 cells, 6 hours after removal): about 50%
- form of H-ras after removal of inhibitor (H-ras^v12; 3.7 cells, 24 hours after removal): majority of the H-ras in the cells was in the farnesylated form
- time by which conversion of H-ras to the slower moving form was observed (H-ras^v12; 5R cells, 5 μm FTI-277): ≤ 4 h
- detectable H-ras in the unfarnesylated form (H-ras^v12; 5R cells, 5 μm FTI-277, 6-8 hours after addition): approximately 50%
- time to reversal of accumulation of unfarnesylated H-ras after removal of inhibitor (H-ras^v12; H-ras transformed REF cells): ≤ 24 h
- radiation-induced apoptosis [2]: significant increase in apoptosis
